Data published in patent US9675576B2, “Polyenolic zinc-binding agents (pezbins) actively promote inactivation of cancer stem cells and potentiate cytotoxic anti-tumor drug substances” (The Research Foundation for The State University of New York, priority 2012, dated 2017).
“Also recorded” adds a separate entry of the source.

How the values were obtained:
CD133hi cells = assay: Number of CD133hi cells after taxol, stemness-promoting cultures (FIG. 1); format: cell-based
Procedure: FIG. 1: The standard anti-cancer drug Taxol increases the ratios (shown by FACS analyses of cells with high expression of CD133) and actual number of CSCs (shown at right graph). CSC-enriched cell populations were cultured and treated in vitro under stemness-promoting condition, i.e. adherent to type I collagen (upper left panels) and as floating 3D spheroids (low left panels) in serum-free stem cell medium (MSCBM, Lonza).
Before any assays, particular cells were isolated using immunomagnetic and FACS cell sorting, characterized with FACS analysis and cultured under the stemness-promoting conditions (repeated cell sorting; serum-free stem cell medium; Lonza; low cell density; type I collagen-coated surfaces; non-adherent culturing on ultra-low adherent plates; Corning).

CD133+ PC3MM2 cells = assay: MTT cytotoxicity assay, CD133+ PC3MM2 cells on type I collagen; format: cell-based, human; settings: 72 hours, 10 nM-10 μM
Procedure: (§1) The CSC-specific cytotoxic effects were studied in two different settings both of which are known to maintain/promote sternness phenotype: adherent to type I collagen cultures and 3D cultures of floating spheroids (Baretton, G. B. 1994; Miyoshi, Y. 2000; Koivisto, P. 1995). The CD133^high/CD44^high cells (1×10^3 cells/well) isolated either from PPT2 or PC3MM2 cell lines were seeded onto the type I collagen-coated 96-well plates, cultured in the MSCGM for 2 days, and the treatment was initiated upon 90% confluency. Paclitaxel, SBT-1214 and CMC2.24 were dissolved in sterile DMSO and then serially diluted in MSCGM. […] Cell death was analyzed on adherent type I collagen cell cultures with the MTT assay [MTT=3-(4,5-dimethylthiazol-2-yl)-2,5-diphenyltetrazolium bromide] as recommended by manufacturer (Invitrogen). […]
The dose-response cytotoxicity of SBT-1214, CMC2.24/and their combination was evaluated by standard MTT assay (all of the in vitro experiments were repeated at least three times and each measurement for the MMT assay was performed in 4 repeats). The dose-response points were plotted as a percentage of the untreated control, the absorbance of which was considered as 100%. Data were expressed as means±SD for each drug concentration. […] Data were expressed as means±SD for control and drug treated tumors. The statistical significance of differences was determined using Student's t-test. […]

[1] = system: prostate CD133+ cells (PPT2 and PC3MM2); assay: MTT cytotoxicity assay, results stated for prostate CD133+ cells without split by line; format: cell-based, human; settings: 48-72 hours
Procedure: (§2) The CSC-specific cytotoxic effects were studied in two different settings both of which are known to maintain/promote sternness phenotype: adherent to type I collagen cultures and 3D cultures of floating spheroids (Baretton, G. B. 1994; Miyoshi, Y. 2000; Koivisto, P. 1995). The CD133^high/CD44^high cells (1×10^3 cells/well) isolated either from PPT2 or PC3MM2 cell lines were seeded onto the type I collagen-coated 96-well plates, cultured in the MSCGM for 2 days, and the treatment was initiated upon 90% confluency. Paclitaxel, SBT-1214 and CMC2.24 were dissolved in sterile DMSO and then serially diluted in MSCGM. For testing the SBT-1214/CMC2.24 combination efficacy, the regular MSCGM was replaced with treatment medium containing SBT-1214 or Ptx at selected concentration range (from 10 nM to 10 μM) with 30 μM CMC2.24. Treatment medium was removed 24, 48 or 72 hr later, followed by return to the MSCGM. Cell death was analyzed on adherent type I collagen cell cultures with the MTT assay [MTT=3-(4,5-dimethylthiazol-2-yl)-2,5-diphenyltetrazolium bromide] as recommended by manufacturer (Invitrogen). Spheroids were cultured and treated on ULA plates.
(§3) The dose-response cytotoxicity of SBT-1214, CMC2.24/and their combination was evaluated by standard MTT assay (all of the in vitro experiments were repeated at least three times and each measurement for the MMT assay was performed in 4 repeats). The dose-response points were plotted as a percentage of the untreated control, the absorbance of which was considered as 100%. Data were expressed as means±SD for each drug concentration. The in vivo responses to drug treatment were evaluated as changes in tumor volume of drug-treated versus untreated control xenografts induced by particular type of cells. Data were expressed as means±SD for control and drug treated tumors. The statistical significance of differences was determined using Student's t-test. The parameters used were the two-tailed distribution and the paired test. P<0.05 was considered statistically significant.

CD133+ PPT2 cells = format: cell-based, human
Procedure: as §2, §3

[2] = system: PPT2 and PC3MM2 cell lines; assay: FACS analysis of CD133 expression after drug treatment; format: cell-based, human; settings: 10 nM to 10 μM, 24 hours, concentration-dependent
From the text: To ensure more reliable isolation of CSCs, cells were labeled with one or several markers conjugated with different fluorescent dyes, including anti-human CD133/2-APC (clone 293C3; Miltenyi Biotec, CA, USA); CD166-PE (clone 105902; R&D Systems, MN, USA); CD44-FITC (clone F10-44-2), CD44-PE (clone F10-44-2; Invitrogen/Biosources, USA); CD44v6-FITC (clone 2F10; R&D Systems, USA), EpCAM-FITC (Biosource, CA, USA), Pan-Keratin (C11)-Alexa Fluor® 488 (Cell Signaling) and all the isotype controls (Chemicon). Antibodies were diluted in buffer containing 5% BSA, 1 mM EDTA and 15-20% blocking reagent (Miltenyi Biotec) to inhibit unspecific binding to non-target cells. After 15 min incubation at 4° C., stained cells were sorted and analyzed with multiparametric flow cytometer BD FACSAria (Becton Dickinson, CA). Alternatively, dissociated cells were centrifuged at 950 g for 5 min at 4° C., rinsed with sterile MACS buffer (Miltenyi Biotec, CA) and labeled with CD133 Abs directly or indirectly conjugated with ferromagnetic beads (Miltenyi Biotec, CA) as recommended by manufacturer.
as §1

[3] = system: drug-resistant colon tumor xenografts; settings: all surviving mice; cited from earlier work
[4] = system: PPT2- and PC3MM2-induced tumors; assay: Tumor xenografts induced by CD133+ cells, tumor size; format: in vivo, NOD/SCID mice
Procedure: All experiments involving the use of animals were carried out in strict accordance with the recommendations in the Guide for the Care and Use of Laboratory Animals of the National Institutes of Health, via a research protocol that was approved by Stony Brook University Institutional Animal Care and Use Committee (IACUC). NOD/SCID mice (Charles River Laboratories International, Inc., MA) were maintained under defined conditions at SBU animal facility. After sufficient propagation, CD133^+ cells were resuspended in 1:1 MSCGM/Matrigel and injected to the flanks of 6 weeks old NOD/SCID mice (3,000 cells per mice; subcutaneously). Tumor development was monitored starting from the second week. The primary tumor sizes were measured with a caliper on a weekly basis and approximate tumor weights determined using the formula 0.5ab^2, where b is the smaller of the two perpendicular diameters. All mice were terminated after fourth week of treatment, if the tumor measured ˜2 cm, or at the first sign of suffering.
Animals were handled according to protocols that have been approved by the Institutional Animal Care and Use committee of the Stony Brook University. […] Systemic toxicity in NOD/SCID mice was closely monitored and evaluated by standard criteria (motor activity, morbidity, appetite, posture and appearance). […] Cells were counted and plated on 48-well plates at a final count of 300 cells per well. […]

PC3MM2-induced tumors = assay: Residual tumors after treatment, viable cells and ex vivo colonies, PC3MM2; format: in vivo, NOD/SCID mice; settings: 40, 20, 20, 20 mg/kg weekly, one week after last treatment
Procedure: (§4) Animals were handled according to protocols that have been approved by the Institutional Animal Care and Use committee of the Stony Brook University. The staff of veterinarians provided veterinary care. The SBT-1214 was administered intravenously (40, 20, 20, 20 mg/kg; weekly) to 6-weeks old NOD/SCID mice. Treatment was started 2-3 weeks after transplantation of the tumor cells, when tumor xenografts reached ˜100 mm^3. Systemic toxicity in NOD/SCID mice was closely monitored and evaluated by standard criteria (motor activity, morbidity, appetite, posture and appearance). One week after the last treatment, all residual tumors were harvested and analyzed histopathologically and for ex vivo clonogenic capacity. One part of each mouse tumor xenograft was snap-frozen in embedding matrix (Lipshaw) and kept at −80° C. before immunohistochemical analysis at standard conditions. […] Ability to induce the round colonies (holoclones) was also determined before and after drug treatment. Cells were counted and plated on 48-well plates at a final count of 300 cells per well. One week after initiation, the plates were inspected for colony growth and the number of colonies within each well was quantified by phase contrast microscopy. After drug treatment, one portion of cells which survived particular treatment regimen was placed at 3D and adherent culture conditions and analyzed. […]

[5] = system: PPT2 and PC3MM2 floating spheroids; assay: Sphere formation assay after drug treatment; format: cell-based, human; settings: 1 μM, 24 hours
Procedure: In order to obtain prostate cancer spheroids, MACS-CD133 and MACS-CD44 (Miltenyi Biotec, CA) or FACS sorted CD133^high/CD44^high cells were seeded at low numbers on ULA plates (1,000 cells per 6-well plate or 5-10,000 cells per 75 mm flasks) in MSCGM or SPCM. For evaluation of the clonogenic/sphere-forming capacity, cells were counted with Cellometer Auto T4 (Nexcelom Bioscience LLC, MA), resuspended in 1:4 type I collagen/SPCM or 1:4 Matrigel/MSGM and known cell numbers were plated on ULA plates. One week after initiation plates were inspected for floating sphere growth and compact well-shaped spheroids were counted. Spheroids were serially passaged by gentle dissociation and mixing with a new Matrigel/MSGM or type I collagen/SPCM, or reseeded on 48-well plates for final count of 5-10 spheres per well for further propagation and analysis.

PPT2-induced tumors = assay: Residual tumors after treatment, viable cells and ex vivo colonies, PPT2; format: in vivo, NOD/SCID mice; settings: 40, 20, 20, 20 mg/kg weekly, one week after last treatment
Procedure: as §4

[6] = Systemic toxicity in tumor-bearing mice; format: in vivo, NOD/SCID mice
Procedure: as §4

[7] = system: Oct-4, Sox-2, Nanog, Lin-28 and c-Myc; assay: Stem cell-specific PCR array on 3D spheroids induced by CD133high/CD44high cells; format: cell-based; settings: single treatment with 0.01 μg/ml
Procedure: Stem cell-specific gene expression profiles were studied with the PCR Array assay (SABiosciences, CA) in accordance with the manufacturer's recommendations. Briefly, total RNA was isolated from different cell populations (cancer stem cells expressing high levels of the CD133 and CD44, or whole floating spheroids that are enriched with CSCs) using PARIS kit (Ambion). Up to 1 μg of total RNA was treated with DNase and cDNA was prepared using RT^2 First Strand kit. For each analysis, pairs of the test and control cDNA samples were mixed with RT^2 qPCR Master mix and distributed across the PCR array 96-well plates, each of which contained 84 stem cell-related probes and control housekeeping genes. After cycling with real-time PCR (Opticon MJ Research or ABI 7300, Applied Biosystems), obtained amplification data (fold-changes in Ct values of all the genes) was analyzed with SABiosciences software.
Since CSC-enriched CD 133^+ and CD44^+ cell populations are more resistant to conventional therapies than other more differentiated cells, the cytotoxic effects of SBT-1214 were tested against such cell populations in colon (Botchkina et al., 2010) and prostate (FIG. 5) cancers. […]

c-Myc, Sox-2 and Oct4 = assay: Western blot of key transcription factors; format: cell-based, human; settings: nuclear extracts of CD133+ and bulk PPT2 cells
Procedure: (§5) Cells were lysed using Active Motif Nuclear Co-ip kit according to manufacturer's protocol. 20 μg of enriched nuclear and cytoplasmic extracts was subjected to electrophoresis in 10% polyacrylamide gel. The proteins were then transferred to a nitrocellulose membrane and developed with appropriate antibodies.

p53 and p21 = assay: Western blot of pro-apoptotic proteins; format: cell-based, human; settings: CD133+ and bulk PPT2 cells, previously not expressed
Procedure: as §5

CC(=O)O[C@H]1C(=O)[C@@]2(C)[C@H]([C@H](OC(=O)c3ccccc3)[C@]3(O)C[C@H](OC(=O)[C@H](O)[C@@H](NC(=O)c4ccccc4)c4ccccc4)C(C)=C1C3(C)C)[C@]1(OC(C)=O)CO[C@@H]1C[C@@H]2O [Paclitaxel]
number of CD133hi cells after treatment (CD133hi cells; 3D spheroids): 149% | number of CD133hi cells after treatment (CD133hi cells; type I collagen cultures): 160% | proliferation of the tumorigenic prostate cancer cells (CD133+ PC3MM2 cells): did not suppress proliferation | cell death ([1]; 10 μM): about 40% | proliferation of the tumorigenic prostate cancer cells (CD133+ PPT2 cells; 72 hours, 10 nM-10 μM): did not suppress proliferation | ratios of cells with highest expression of CD133 [2]: increased the ratios

CC(=O)O[C@@]12CO[C@@H]1C[C@H](O)[C@@]1(C)C(=O)[C@H](OC(=O)C3CC3)C3=C(C)[C@@H](OC(=O)[C@H](O)[C@H](C=C(C)C)NC(=O)OC(C)(C)C)C[C@@](O)([C@@H](OC(=O)c4ccccc4)[C@H]21)C3(C)C [SBT-1214]
tumor regression [3]: complete regression | tumor size ([4]; 40, 20, 20, 20 mg/kg weekly i.v.): more significant tumor regression; also recorded: dramatic reduction in tumor size | tumor size ([4]; 40, 40, 40 mg/kg weekly i.v., by the third treatment): dramatically shrunk | residual tumors without viable cells and without colonies in culture (PC3MM2-induced tumors): three of six | cell death (CD133+ PC3MM2 cells; stated as up to): up to 60% | ability to induce secondary 3D spheroids or collagen-adherent colonies [5]: lost their ability to induce both secondary 3D spheroids | residual tumors without viable cells and without colonies in culture (PPT2-induced tumors): Four of six | CD133+ cells killed ([1]; 10 nM to 10 μM, stated as up to): up to 60% | cytotoxicity at lower concentrations compared to 10 μM (CD133+ PPT2 cells; 100 nM-1 μM versus 10 μM, 48-72 hours): higher cytotoxicity | cell death (CD133+ PPT2 cells; 72 hours, 10 nM-10 μM, stated as up to): up to 65% | systemic toxicity ([6]; 40, 20, 20, 20 mg/kg weekly): much lower systemic toxicity | systemic toxicity ([6]; 40, 40, 40 mg/kg weekly): all mice expressed common signs of systemic toxicity | expression of key regulators of pluripotency [7]: significantly inhibited | ratios of cells with highest expression of CD133 [2]: increased the ratios | c-Myc and Sox2 expression (c-Myc, Sox-2 and Oct4): moderate down-regulation | expression of p21 and p53 (p53 and p21): induced expression
